# Where two headings read alike, the source gives them in different places.
# Tests used:
# [1] = test system: Aspergillus spp.; assay: Modified disc diffusion method, boron compounds; type: cell-based; set-up: key: + sign indicates that the boron compounds had antimicrobial activity.; − sign indicates that there is no antimicrobial activity; settings: disc immersed in pulverized compound; 25±1° C., 72 hours
# [2] = test system: Pseudomonas aeruginosa; assay: Modified disc diffusion method, boron compounds; type: cell-based; set-up: key: + sign indicates that the boron compounds had antimicrobial activity.; − sign indicates that there is no antimicrobial activity; settings: disc immersed in pulverized compound; 36±1° C., 24 hours
# [3] = test system: Vancomycin-resistant Enterococcus (VRE); assay: Modified disc diffusion method, boron compounds; type: cell-based; set-up: key: + sign indicates that the boron compounds had antimicrobial activity.; − sign indicates that there is no antimicrobial activity; settings: disc immersed in pulverized compound; 36±1° C., 24 hours
# [4] = test system: Methicillin-resistant Staphylococcus aureus (MRSA); assay: Modified disc diffusion method, boron compounds; type: cell-based; set-up: key: + sign indicates that the boron compounds had antimicrobial activity.; − sign indicates that there is no antimicrobial activity; settings: disc immersed in pulverized compound; 36±1° C., 24 hours
# [5] = test system: Candida glabrata; assay: Modified disc diffusion method, boron compounds; type: cell-based; set-up: key: + sign indicates that the boron compounds had antimicrobial activity.; − sign indicates that there is no antimicrobial activity; settings: disc immersed in pulverized compound; 36±1° C., 48 hours
# [6] = test system: Candida albicans; assay: Modified disc diffusion method, boron compounds; type: cell-based; set-up: key: + sign indicates that the boron compounds had antimicrobial activity.; − sign indicates that there is no antimicrobial activity; settings: disc immersed in pulverized compound; 36±1° C., 48 hours
# [7] = test system: Escherichia coli; assay: Modified disc diffusion method, boron compounds; type: cell-based; set-up: key: + sign indicates that the boron compounds had antimicrobial activity.; − sign indicates that there is no antimicrobial activity; settings: disc immersed in pulverized compound; 36±1° C., 24 hours
# [8] = test system: Botrytis cinerea; assay: Modified disc diffusion method, boron compounds; type: cell-based; set-up: key: + sign indicates that the boron compounds had antimicrobial activity.; − sign indicates that there is no antimicrobial activity; settings: disc immersed in pulverized compound; 25±1° C., 72 hours
# [9] = test system: Staphylococcus aureus; assay: Modified disc diffusion method, boron compounds; type: cell-based; set-up: key: + sign indicates that the boron compounds had antimicrobial activity.; − sign indicates that there is no antimicrobial activity; settings: disc immersed in pulverized compound; 36±1° C., 24 hours
# [10] = test system: Fusarium oxysporum; assay: Modified disc diffusion method, boron compounds; type: cell-based; set-up: key: + sign indicates that the boron compounds had antimicrobial activity.; − sign indicates that there is no antimicrobial activity; settings: disc immersed in pulverized compound; 25±1° C., 72 hours
# [11] = test system: Penicillium spp.; assay: Modified disc diffusion method, boron compounds; type: cell-based; set-up: key: + sign indicates that the boron compounds had antimicrobial activity.; − sign indicates that there is no antimicrobial activity; settings: disc immersed in pulverized compound; 25±1° C., 72 hours
# [12] = test system: adenovirus; settings: 0.02% chlorhexidine gluconate, 90-minute exposure at room temperature; cited from earlier work
# [13] = test system: poliovirus type 1 Chat strain; type: cell-based
# [14] = test system: Herpesvirus hominis; settings: 0.02% chlorhexidine gluconate, 90-minute exposure at room temperature; cited from earlier work
# [15] = test system: poliovirus; settings: 0.02% chlorhexidine gluconate, 90-minute exposure at room temperature; cited from earlier work
# [16] = test system: Human adenovirus type 5 Adenoid 75 strain; type: cell-based
# [17] = ingestion of 30 mg twice daily for three weeks; cited from earlier work
# [18] = test system: enteric bacteria; settings: cited from earlier work
# [19] = test system: various bacterial strains; settings: 0.02% chlorhexidine solution, 10-minute exposure; cited from earlier work
# [20] = test system: humanrhinovirus, coxsackievirus and mengovirus; settings: binds with ions of metals such as zinc; cited from earlier work
# [21] = test system: Saccharomyces cerevisiae yeast; settings: cited from earlier work
# [22] = test system: P. aeruginosa NCIMB 10548; settings: cited from earlier work
# [23] = test system: Pityrosporum ovale; settings: cited from earlier work
# [24] = test system: E. coli NCIMB 10000; settings: cited from earlier work
# [25] = 60 minutes, clean medium, 20° C.
Molecule,Antimicrobial activity (inhibition zone) [1],Antimicrobial activity (inhibition zone) [2],Antimicrobial activity (inhibition zone) [3],Antimicrobial activity (inhibition zone) [4],Antimicrobial activity (inhibition zone) [5],Antimicrobial activity (inhibition zone) [6],Antimicrobial activity (inhibition zone) [7],Antimicrobial activity (inhibition zone) [8],Antimicrobial activity (inhibition zone) [9],Antimicrobial activity (inhibition zone) [10],Antimicrobial activity (inhibition zone) [11],also measured
"O.O.O.O.O.[Na+].[Na+].[O-]B1OB2OB([O-])OB(O1)O2 [BP, Borax pentahydrate]",+,+,+,+,+,+,+,+,+,+,+,
"N=C(NCCCCCCNC(=N)NC(=N)Nc1ccc(Cl)cc1)NC(=N)Nc1ccc(Cl)cc1.O=C(O)[C@H](O)[C@@H](O)[C@H](O)[C@H](O)CO.O=C(O)[C@H](O)[C@@H](O)[C@H](O)[C@H](O)CO [Chlorhexidine Gluconate, Chlorhexidine gluconate]",,,,,,,,,,,,"activity against virus [12]: ineffective; Virus titer with disinfectant [13]: 2.0 Logarithmic TCID50; reduction in virus titer [13]: at least 4 log; reduction of virus titration [14]: more than 99%; activity against virus [15]: ineffective; Reduction ratio in virus titer [16]: 4.0 Logarithmic TCID50 ratio; Virus titer with disinfectant [16]: 1.5 Logarithmic TCID50; reduction in virus titer [16]: at least 4 log; Reduction ratio in virus titer ([16]; 1 minute, clean medium, 20° C.): 4.0 Logarithmic TCID50 ratio; Virus titer with disinfectant ([16]; 1 minute, clean medium, 20° C.): 1.5 Logarithmic TCID50; Reduction ratio in virus titer [16, 25]: 4.0 Logarithmic TCID50 ratio; Virus titer with disinfectant [16, 25]: 1.5 Logarithmic TCID50; active against virus ([16]; used directly without being diluted, 20° C., 1 and 60 minute application periods): 99.9%"
"O.O.O.O.O=BOB1OB(OB=O)OB2OB([O-])OB([O-])OB(O1)O2.[Na+].[Na+] [DOT, Disodium octaborate tetrahydrate]",+,+,+,+,+,+,+,+,+,+,+,
"O.O.O.O.O.O.O.O.O.O.[Na+].[Na+].[O-]B1OB2OB([O-])OB(O1)O2 [SB, Sodium Borate]",+,+,+,+,+,+,+,+,+,+,+,
"O.O.O.O.[Na+].[O-]B1OO1 [SPT, Sodium perborate tetrahydrate]",+,+,+,+,+,+,+,+,+,+,+,
"O=BOB(O)OB(O)OB=O [borax, borax (Na2B4O7 10 H2O)]",,,,,,,,,,,,effect on rheumatism [17]: substantially alleviated rheumatism
OB(O)O [boric acid],,,,,,,,,,,,antibacterial activity [18]: has antibacterial activity
[H]/N=C(\N/C(=N/[H])NCCCCCCNC(=N)NC(=N)Nc1ccc(Cl)cc1)Nc1ccc(Cl)cc1 [chlorhexidine],,,,,,,,,,,,inhibition of microorganisms [19]: 4 log
CC(C)c1cccc(=O)c(O)c1 [hinokitiol],,,,,,,,,,,,inhibition of virus proliferation [20]: inhibited proliferation
Zinc borate [ZB],+,+,+,+,+,+,+,+,+,+,+,
Zinc pyrithione,,,,,,,,,,,,antiyeast activity [21]: has antiyeast activity; Reduction ratio in virus titer [13]: 4.5 Logarithmic TCID50 ratio; Virus titer with disinfectant [13]: 1.5 Logarithmic TCID50; reduction in virus titer [13]: at least 4 log; MIC value [22]: 13 µg/mL; antifungal activity [23]: has antifungal activity; MIC value [24]: 4.5 µg/mL; Reduction ratio in virus titer [16]: 4.0 Logarithmic TCID50 ratio; Virus titer with disinfectant [16]: 1.0 Logarithmic TCID50; active against virus [16]: 99.9%; reduction in virus titer [16]: at least 4 log
